Source: patent US9139523B2, “5-HT2B receptor antagonists” (Janssen Pharmaceutica, NV, priority 2010, dated 2015)

Key:
[1] = Pharmacokinetic evaluation in the rat; assay type: in vivo; conditions: male Sprague Dawley rat
Method: For intravenous (i.v.) administration, Compound (−)-17 was dissolved in saline containing 20% (w/v) hydroxy-propyl-beta-cyclodextrin (HPbCD) at a concentration of 1 mg/mL and administered (2.5 mL/kg) to male Sprague Dawley rats (n=1) as a bolus via a saphenous vein at a dose level of 2.5 mg/kg. For oral (p.o.) administration, Compound (−)-17 was dissolved in water containing 20% (w/v) HPbCD at a concentration of 1 mg/mL and administered (10 mL/kg) to male Sprague Dawley rats (n=3) via gavage at a dose level of 10 mg/kg. Blood samples were collected via a tail vein at serial time points up to 24 h after dosing. Plasma was obtained by centrifugation and stored at −20° C. prior to analysis. Analysis was performed using liquid chromatography (LC) with tandem mass spectrometric detection (MS/MS) in positive ion mode. Compound (−)-17 was eluted from a reversed phase column with a gradient of acetonitrile and water containing 0.1% (v/v) formic acid. At the time of analysis plasma samples (50 uL) were thawed and […] with at least three volumes of acetonitrile and centrifuged. Aliquots of the supernatant were injected onto a reversed phase UPLC column and analysed via electrospray Mass Spectrometry. Calibration standards and quality controls, analysed before and after the samples, were prepared in rat plasma at the same time as the study samples. The accuracy (intra branch accuracy from independent QC samples) was between 85% and 115% of the nominal value over the entire concentration range. Non-compartmental pharmacokinetic analysis of the plasma concentration-time curves was performed using WinNonLin to provide estimates of the plasma clearance (CLp), volume of distribution at steady-state (Vss), terminal phase elimination half-life (t½) and oral bioavailability (F), the results are summarised in Table 8.

[2] = system: anesthetized dogs (Beagles); assay: Cardio-hemodynamic, cardio-electrophysiological, EEG and pulmonary effects in ventilated, anesthetized dogs; assay type: in vivo, dog; conditions: for Median plasma level: 5-min i.v. infusion
Method: The animals were anesthetized with a mixture of 0.015 mg/kg i.v. scopolamine and 0.075 mg/kg i.v. lofentanil, and relaxed with succinylcholine (5 mg/kg i.v.) followed by a continuous i.v. infusion of 1.5 mg/kg/h of etomidate and small additional doses of fentanyl (0.025 mg/kg i.v.) were given at 60 min intervals. The animals were ventilated and prepared for measurements of the surface ECG, aortic-, pulmonary- and left ventricular blood pressure, carotid blood flow, monophasic action potential, body temperature, blood gasses and EEG (see Van Deuren et al, J Pharmacol Toxicol Methods; 2009; 60: 11-23). Compound (−)-17 was dissolved in 20% hydroxypropyl-cyclodextrin with NaOH, HCl and mannitol in pyrogen-free water and administered intravenously (1 ml/kg) in increasing doses (0.16, 0.32, 0.63, 1.25, 2.5 and 5 mg/kg) over a period of 5 min at 30-min intervals. Plasma concentrations of Compound (−)-17 were measured before and at the end of each infusion. Corresponding volumes of vehicle were administered according to the same protocol in a second group of animals.

SMILES: COc1cc(N)c(Cl)cc1C(=O)NC1CCN(CCCOc2ccc(F)cc2)CC1(F)F (single isomer, unassigned) [Compound (−)-17, 4-amino-5-chloro-N-{3,3-difluoro-1-[3-(4-fluorophenoxy)-propyl]-piperidin-4-yl}-2-methoxybenzamide]
- F ([1]; p.o. 10 mg/kg vs i.v. 2.5 mg/kg): 19%
- half-life ([1]; plasma, intravenous, 2.5 mg/kg, read-out: t½ (converted)): 66 min
- clearance ([1]; plasma, iv, i.v. 2.5 mg/kg (n=1)): 46 mL/min/kg
- Vd ([1]; plasma, iv, i.v. 2.5 mg/kg (n=1), read-out: Vss): 3.1 L/kg
- AUC(0-t) ([1]; plasma, po, p.o. 10 mg/kg): 686 ± 254 ng·h/mL
- Cmax ([1]; plasma, po, p.o. 10 mg/kg): 119 ± 37 ng/mL
- Tmax ([1]; plasma, po, p.o. 10 mg/kg): 30 min
- DPP, percentage change relative to vehicle ([2]; dog i.v. 0.16 mg/kg @ 5′): +3%
- HR, percentage change relative to vehicle ([2]; dog i.v. 0.16 mg/kg @ 5′): −4%
- LVdp/dtmax, percentage change relative to vehicle ([2]; dog i.v. 0.16 mg/kg @ 5′): −1%
- MBP, percentage change relative to vehicle ([2]; dog i.v. 0.16 mg/kg @ 5′): +2%
- PQ, percentage change relative to vehicle ([2]; dog i.v. 0.16 mg/kg @ 5′): −1%
- QRS, percentage change relative to vehicle ([2]; dog i.v. 0.16 mg/kg @ 5′): +1%
- QTcV, percentage change relative to vehicle ([2]; dog i.v. 0.16 mg/kg @ 5′): +2%
- SPP, percentage change relative to vehicle ([2]; dog i.v. 0.16 mg/kg @ 5′): +2%
- DPP, percentage change relative to vehicle ([2]; dog i.v. 0.16 mg/kg @ 30′): −3%
- HR, percentage change relative to vehicle ([2]; dog i.v. 0.16 mg/kg @ 30′): −5%
- LVdp/dtmax, percentage change relative to vehicle ([2]; dog i.v. 0.16 mg/kg @ 30′): +0%
- MBP, percentage change relative to vehicle ([2]; dog i.v. 0.16 mg/kg @ 30′): +3%
- PQ, percentage change relative to vehicle ([2]; dog i.v. 0.16 mg/kg @ 30′): −0%
- QRS, percentage change relative to vehicle ([2]; dog i.v. 0.16 mg/kg @ 30′): +2%
- QTcV, percentage change relative to vehicle ([2]; dog i.v. 0.16 mg/kg @ 30′): +4%
- SPP, percentage change relative to vehicle ([2]; dog i.v. 0.16 mg/kg @ 30′): +5%
- DPP, percentage change relative to vehicle ([2]; dog i.v. 0.32 mg/kg @ 5′): +0%
- HR, percentage change relative to vehicle ([2]; dog i.v. 0.32 mg/kg @ 5′): −5%
- LVdp/dtmax, percentage change relative to vehicle ([2]; dog i.v. 0.32 mg/kg @ 5′): +0%
- MBP, percentage change relative to vehicle ([2]; dog i.v. 0.32 mg/kg @ 5′): +5%
- PQ, percentage change relative to vehicle ([2]; dog i.v. 0.32 mg/kg @ 5′): −2%
- QRS, percentage change relative to vehicle ([2]; dog i.v. 0.32 mg/kg @ 5′): +3%
- QTcV, percentage change relative to vehicle ([2]; dog i.v. 0.32 mg/kg @ 5′): +2%
- SPP, percentage change relative to vehicle ([2]; dog i.v. 0.32 mg/kg @ 5′): +11%
- DPP, percentage change relative to vehicle ([2]; dog i.v. 0.32 mg/kg @ 30′): −8%
- HR, percentage change relative to vehicle ([2]; dog i.v. 0.32 mg/kg @ 30′): +3%
- LVdp/dtmax, percentage change relative to vehicle ([2]; dog i.v. 0.32 mg/kg @ 30′): −4%
- MBP, percentage change relative to vehicle ([2]; dog i.v. 0.32 mg/kg @ 30′): +2%
- PQ, percentage change relative to vehicle ([2]; dog i.v. 0.32 mg/kg @ 30′): −2%
- QRS, percentage change relative to vehicle ([2]; dog i.v. 0.32 mg/kg @ 30′): +4%
- QTcV, percentage change relative to vehicle ([2]; dog i.v. 0.32 mg/kg @ 30′): +1%
- SPP, percentage change relative to vehicle ([2]; dog i.v. 0.32 mg/kg @ 30′): −3%
- DPP, percentage change relative to vehicle ([2]; dog i.v. 0.63 mg/kg @ 5′): +0%
- HR, percentage change relative to vehicle ([2]; dog i.v. 0.63 mg/kg @ 5′): −0%
- LVdp/dtmax, percentage change relative to vehicle ([2]; dog i.v. 0.63 mg/kg @ 5′): −3%
- MBP, percentage change relative to vehicle ([2]; dog i.v. 0.63 mg/kg @ 5′): +6%
- PQ, percentage change relative to vehicle ([2]; dog i.v. 0.63 mg/kg @ 5′): +3%
- QRS, percentage change relative to vehicle ([2]; dog i.v. 0.63 mg/kg @ 5′): +4%
- QTcV, percentage change relative to vehicle ([2]; dog i.v. 0.63 mg/kg @ 5′): +1%
- SPP, percentage change relative to vehicle ([2]; dog i.v. 0.63 mg/kg @ 5′): −2%
- DPP, percentage change relative to vehicle ([2]; dog i.v. 0.63 mg/kg @ 30′): −9%
- HR, percentage change relative to vehicle ([2]; dog i.v. 0.63 mg/kg @ 30′): +4%
- LVdp/dtmax, percentage change relative to vehicle ([2]; dog i.v. 0.63 mg/kg @ 30′): −2%
- MBP, percentage change relative to vehicle ([2]; dog i.v. 0.63 mg/kg @ 30′): +2%
- PQ, percentage change relative to vehicle ([2]; dog i.v. 0.63 mg/kg @ 30′): −0%
- QRS, percentage change relative to vehicle ([2]; dog i.v. 0.63 mg/kg @ 30′): +1%
- QTcV, percentage change relative to vehicle ([2]; dog i.v. 0.63 mg/kg @ 30′): +4%
- SPP, percentage change relative to vehicle ([2]; dog i.v. 0.63 mg/kg @ 30′): −1%
- DPP, percentage change relative to vehicle ([2]; dog i.v. 1.25 mg/kg @ 5′): −7%
- HR, percentage change relative to vehicle ([2]; dog i.v. 1.25 mg/kg @ 5′): −0%
- LVdp/dtmax, percentage change relative to vehicle ([2]; dog i.v. 1.25 mg/kg @ 5′): −1%
- MBP, percentage change relative to vehicle ([2]; dog i.v. 1.25 mg/kg @ 5′): +10%
- PQ, percentage change relative to vehicle ([2]; dog i.v. 1.25 mg/kg @ 5′): +2%
- QRS, percentage change relative to vehicle ([2]; dog i.v. 1.25 mg/kg @ 5′): +4%
- QTcV, percentage change relative to vehicle ([2]; dog i.v. 1.25 mg/kg @ 5′): +2%
- SPP, percentage change relative to vehicle ([2]; dog i.v. 1.25 mg/kg @ 5′): −1%
- DPP, percentage change relative to vehicle ([2]; dog i.v. 1.25 mg/kg @ 30′): −12%
- HR, percentage change relative to vehicle ([2]; dog i.v. 1.25 mg/kg @ 30′): −3%
- LVdp/dtmax, percentage change relative to vehicle ([2]; dog i.v. 1.25 mg/kg @ 30′): −5%
- MBP, percentage change relative to vehicle ([2]; dog i.v. 1.25 mg/kg @ 30′): +0%
- PQ, percentage change relative to vehicle ([2]; dog i.v. 1.25 mg/kg @ 30′): +2%
- QRS, percentage change relative to vehicle ([2]; dog i.v. 1.25 mg/kg @ 30′): +2%
- QTcV, percentage change relative to vehicle ([2]; dog i.v. 1.25 mg/kg @ 30′): +1%
- SPP, percentage change relative to vehicle ([2]; dog i.v. 1.25 mg/kg @ 30′): −9%
- DPP, percentage change relative to vehicle ([2]; dog i.v. 2.5 mg/kg @ 5′): +1%
- HR, percentage change relative to vehicle ([2]; dog i.v. 2.5 mg/kg @ 5′): −5%
- LVdp/dtmax, percentage change relative to vehicle ([2]; dog i.v. 2.5 mg/kg @ 5′): −8%
- PQ, percentage change relative to vehicle ([2]; dog i.v. 2.5 mg/kg @ 5′): +6%
- QRS, percentage change relative to vehicle ([2]; dog i.v. 2.5 mg/kg @ 5′): +2%
- QTcV, percentage change relative to vehicle ([2]; dog i.v. 2.5 mg/kg @ 5′): −3%
- SPP, percentage change relative to vehicle ([2]; dog i.v. 2.5 mg/kg @ 5′): −1%
- DPP, percentage change relative to vehicle ([2]; dog i.v. 2.5 mg/kg @ 30′): −24%
- HR, percentage change relative to vehicle ([2]; dog i.v. 2.5 mg/kg @ 30′): −4%
- LVdp/dtmax, percentage change relative to vehicle ([2]; dog i.v. 2.5 mg/kg @ 30′): +2%
- MBP, percentage change relative to vehicle ([2]; dog i.v. 2.5 mg/kg @ 30′): +0%
- PQ, percentage change relative to vehicle ([2]; dog i.v. 2.5 mg/kg @ 30′): +2%
- QRS, percentage change relative to vehicle ([2]; dog i.v. 2.5 mg/kg @ 30′): +3%
- QTcV, percentage change relative to vehicle ([2]; dog i.v. 2.5 mg/kg @ 30′): −1%
- SPP, percentage change relative to vehicle ([2]; dog i.v. 2.5 mg/kg @ 30′): −15%
- DPP, percentage change relative to vehicle ([2]; dog i.v. 5 mg/kg @ 5′): +17%
- HR, percentage change relative to vehicle ([2]; dog i.v. 5 mg/kg @ 5′): −15%
- LVdp/dtmax, percentage change relative to vehicle ([2]; dog i.v. 5 mg/kg @ 5′): −11%
- PQ, percentage change relative to vehicle ([2]; dog i.v. 5 mg/kg @ 5′): +2%
- QRS, percentage change relative to vehicle ([2]; dog i.v. 5 mg/kg @ 5′): +6%
- QTcV, percentage change relative to vehicle ([2]; dog i.v. 5 mg/kg @ 5′): −3%
- SPP, percentage change relative to vehicle ([2]; dog i.v. 5 mg/kg @ 5′): −10%
- DPP, percentage change relative to vehicle ([2]; dog i.v. 5 mg/kg @ 30′): −5%
- HR, percentage change relative to vehicle ([2]; dog i.v. 5 mg/kg @ 30′): −14%
- LVdp/dtmax, percentage change relative to vehicle ([2]; dog i.v. 5 mg/kg @ 30′): +2%
- MBP, percentage change relative to vehicle ([2]; dog i.v. 5 mg/kg @ 30′): +0%
- QRS, percentage change relative to vehicle ([2]; dog i.v. 5 mg/kg @ 30′): +3%
- QTcV, percentage change relative to vehicle ([2]; dog i.v. 5 mg/kg @ 30′): −2%
- SPP, percentage change relative to vehicle ([2]; dog i.v. 5 mg/kg @ 30′): −7%
- effect on heart rate, pulmonary artery pressure, LV end diastolic pressure, cardiac output, stroke volume, pressure rate product, PQ and QRS, lung function, body temperature, EEG ([2]; dog, 0.16 up to 5 mg/kg i.v., relative to vehicle): no relevant effect
- Median plasma level ([2]; dog, dose 0.16 mg/kg (increasing doses, 30-min intervals)): 725 ng/mL
- Median plasma level ([2]; dog, dose 0.32 mg/kg (increasing doses, 30-min intervals)): 1420 ng/mL
- Median plasma level ([2]; dog, dose 0.64 mg/kg (increasing doses, 30-min intervals)): 2540 ng/mL
- LV dp/dtmax/pd ([2]; dog, at 2.5 mg/kg i.v.): started to decrease
- duration of QTc VDW and QTc VcT ([2]; dog, at 5 mg/kg i.v.): minor decrease
- arterial blood pressure, vascular resistance (systemic and common carotid) and Tau ([2]; dog, from 1.25 mg/kg i.v. onwards): started to increase
